{
  "source": "patent US10588963B2",
  "about": "“Methods for providing adjuvanted virosomes and adjuvanted virosomes obtainable thereby” (Bestewil Holding B.V., priority 2014, dated 2020)",
  "experiment": "Equilibrium density gradient centrifugation of adjuvanted RSV virosomes",
  "type": "physicochemical",
  "settings": "10-60% sucrose gradient, spun 66 hrs, after overnight storage at 4° C.",
  "procedure": "To 975 μl of virosomes, containing 850 nmol of phospholipids, 25 μl of DMSO solution containing 153 nmol of 3-D-PHAD was rapidly added while agitating the sample on a vortex mixer. After overnight storage at 4° C., the density of the virosomes was analyzed by equilibrium density gradient centrifugation loaded on 10-60% sucrose gradients, which were spun for 66 hrs in a Sorvall AH 650 rotor at 50 krpm. […] Samples from the gradient were analyzed for sucrose concentration by refractometry, giving a measure of density, phosphate (both lipid and 3-D-PHAD), and protein.\nThe above adjuvant solutions were added to four tubes with 950 μl of virosomes each, containing 850 nmol of phospholipids, with rapid mixing on a vortex. After overnight storage at 4° C., the density of the virosomes was analyzed by equilibrium density gradient centrifugation on 10-60% sucrose gradients, which were spun for 66 hrs in a Sorvall AH 650 rotor at 120 000 g. Samples from the gradient were analyzed for density, phosphate (both lipid and 3 DPHAD), and protein.",
  "data": [
    {"smiles": "CCCCCCCCCCCCCC(=O)O[C@H](CCCCCCCCCCC)CC(=O)O[C@@H]1[C@@H](NC(=O)C[C@@H](CCCCCCCCCCC)OC(=O)CCCCCCCCCCC)[C@H](OC[C@H]2O[C@H](O)[C@H](NC(=O)C[C@H](O)CCCCCCCCCCC)[C@@H](O)[C@@H]2O)O[C@H](CO)[C@H]1OP(=O)(O)O.N", "note": "[3-D-PHAD]", "values": [
      {"measurement": "density of band in equilibrium density gradient", "value": "around 1.12 g/ml"}
    ]}
  ]
}
